Results from US20070123699A1, “Peptide conjugate useful for cell nucleus molecular imaging and tumor therapy” (priority 2002, published 2007).

What was measured:
[1] = test system: DU-145 prostate cancer cells; assay: MRI: DU-145 cell uptake and efflux of Gd^3+ conjugates (T1-weighted signal, relaxivity); type: cell-based, human
Experimental: (I) MRI: DU-145 Cell Uptake of the CNN—Gd^3+-Complex and CNRN—Gd^3+-Complex Compared to that of Magnevist®
DU-145 cells were harvested and divided into tubes (Falcon®, Becton Dickinson USA, Cat. No.: 35.2096) (Cell No.: 40×10^6 cells per tube). The CNN—Gd^3+-complex (Table 1, #1552a), the CNRN—Gd^3+-complex (Table 1, #1552b) and the Magnevist® were each dissolved in MEM in a concentration of 0.5 mM and were then incubated for 10, 20, 30 minutes up to 3 hours. […]
MR imaging used a 1.5-T whole body Siemens Magnetom Vision Plus with a standard circular polarized head coil. […] T1 and T2 relaxation-times within the pellets of the three tubes (CNN—Gd^3+, CNRN—Gd^3+, Magnevist) were measured to evaluate the intracellular relaxivity of the respective contrast agents (R=1/T1). The T1-relaxation time was measured by means of an inversion-recovery-sequence (TR: 5000 ms/TE: 76 ms/TI: 25-4000 ms, 17 different TI-values, scan-time 15×25 sec, FOV: 160 mm×160 mm, Matrix: 132×256, slice thickness: 7 mm, pixel size: 1.21×0.63 mm). T2 relaxation-time was measured by a multi-echo-sequence (TR: 5000 ms/16 TE-values: 30 ms-245 ms, FOV: 250 mm×250 mm, Matrix: 256×256, slice thickness: 5 mm, pixel size: 0.98×0.98 mm, scan time: 21 min 21 sec). […]

[2] = i.v. administered alkylating drug, brain tumor; cited from earlier work

CNC[C@H](O)[C@@H](O)[C@H](O)[C@H](O)CO.CNC[C@H](O)[C@@H](O)[C@H](O)[C@H](O)CO.O=C([O-])CN(CCN(CC(=O)[O-])CC(=O)O)CCN(CC(=O)[O-])CC(=O)O.[Gd+3] [Magnevist, reference compound]
MRI signal change above that of DU-145 cells incubated solely in MEM ([1]; DU-145 cells, 0.5 mM, T1-weighted MRI): no signal change | relaxivity R (R=1/T1) within the DU-145 cell pellets ([1]; after incubation with contrast agent 0.5 mM): 0.00069

Cn1nnc2c(C(N)=O)ncn2c1=O [Temodal]
fraction of drug in the blood passing the blood-brain barrier [2]: about 30%
